The text below walks through data of patent publication US20260158009A1 (GENZYME CORPORATION, priority 2023, published 2026).

By IC50 is commonly meant the midpoint of a concentration-inhibition curve.

The target of assay [1] is T1, hRIPK1 (aa 1-375) fusion protein (Homo sapiens, UniProt Q13546).
T1 construct: hRIPK1 (aa 1-375) fusion protein
T1 sequence (Q13546 1-375): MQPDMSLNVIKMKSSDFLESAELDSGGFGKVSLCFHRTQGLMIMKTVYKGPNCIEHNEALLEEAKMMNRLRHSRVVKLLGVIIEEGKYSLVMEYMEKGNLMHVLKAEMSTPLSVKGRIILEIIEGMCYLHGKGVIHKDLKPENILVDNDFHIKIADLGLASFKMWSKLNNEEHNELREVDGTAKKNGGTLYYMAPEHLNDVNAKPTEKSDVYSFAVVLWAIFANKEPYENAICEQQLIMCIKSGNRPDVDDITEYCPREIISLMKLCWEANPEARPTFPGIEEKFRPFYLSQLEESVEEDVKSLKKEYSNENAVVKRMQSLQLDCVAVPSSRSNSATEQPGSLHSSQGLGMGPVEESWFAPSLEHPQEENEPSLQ
The assay is described as follows: ADP-Glo kinase assay: catalytic activity of RIPK1 (autophosphorylation, conversion of ATP to ADP). In kind it is biochemical. Here is the method:
The catalytic activity of RIPK1 was measured by monitoring the conversion of Adenosine triphosphate (ATP) to Adenosine diphosphate (ADP) due to autophosphorylation using an ADP-Glo kinase kit (Promega, catalog no. V9104).
In detail, 2 μl recombinantly produced hRIPK1 (aa 1-375) fusion protein (end concentration 3.6 μg/ml) and 2 μl compound (end concentration 33300-1.69 nM; DMSO end concentration 1%) were incubated for 30 minutes at room temperature and then 2 μl ATP (ADP Glo kit, end concentration 50 μM) were added. After another 240 minutes incubation at room temperature, 5 μl Promega ADP-Glo reagent I was added to quench the reaction and deplete unconsumed ATP. After an incubation period of 30 minutes, 10 μl Promega ADP-Glo detection reagent II was added resulting in conversion of ADP to ATP, which generates a light-reaction between luciferase and luciferin. Luminescence was quantified after 30 minutes with a Pherastar FS (BMG LABTECH, Ortenberg).
The adjustment was obtained by nonlinear regression using the Levenberg Marquardt algorithm.
A general note: In ADP-Glo the light output rises with the ADP produced.

The test system of the next assay is U937 cells. Kind of assay: Cellular assay in U937 cells: activity of RIPK1 inhibitors on TNFα/zVAD.fmk-induced cell death (necroptosis), CellTiter 96 AQueous (MTS) readout. The assay is classed as cell-based. The following applies: Homo sapiens, U-937. The text has this: Upon TNF-Receptor I ligation, Ser/Thr kinase RIPK1 is recruited to a transient receptor complex 1. Upon modification of RIPK1 which promotes activation of RIPK1, complex IIb can form, that involves recruitment of RIPK3 and MLKL (mixed lineage-kinase domain-like protein) which then translocates from the cytosol to the plasma membrane to execute cell death (Cai, Z. et al, Nat. Cell Biol. (2014) 16:55-65).
Cell death was quantified in 96 well plates by determination of the amount of live cell using a CellTiter 96 AQueous reagent (Promega), a calorimetric method to measure the number of live cells by reducing tetrazolium compound [3-(4,5-dimethylthiazol-2-yl)-5-(3-carboxymethoxyphenyl)-2-(4-sulfophenyl)-2H-tetrazolium, inner salt; MTS] into formazan. Absorbance of formazan was read at 490 nm. The inhibitory activity of the test compound was quantified in a concentration response curve (CRC) experiment.
Compounds were obtained as 10 mM stock solutions and were diluted 1 to 10 volumes with DMSO to yield a 1 mM solution. From this solution 2 μl were diluted with 998 μl growth medium. 100 μl of 2 μM compound solution was further diluted sequentially with a dilution factor of 2.5 by adding 150 μl growth medium. A total of 10 concentrations were tested ranging from 10 μM to 0.26 nM or from 1 μM to 0.07 nM.
U937 cells were cultured in RPMI1640 Glutamax and 10% heat inactivated FBS. 50 μl cell suspension containing 1×10^6 cells/ml supplemented with 50 μM zVAD.fmk (Benzyloxycarbonyl-Val-Ala-Asp (OMe) fluoromethylketone) and 100 ng/ml recombinant human TNF[…] were dispensed in each well of a 96-well plate. 50 μl of compound dilutions (described in Cellular assay in U937 cells) were added and the cell suspension incubated overnight (18 to 24 hrs) at 37° C., 5% CO2 in a humidified atmosphere (95% rH). High (no compound) and low control (no TNF[…], zVAD.fmk) were tested with 7 replicates; all compound concentrations were tested in duplicates on each experimental plate.
CellTiter 96 Aqueous reagent was mixed (100 μl PMS (phenazine methosulfate) solution/2 ml MTS (3-(4,5-[…])-5-(3-carboxymethoxyphenyl)-2-(4-sulfophenyl)-2H-tetrazolium, inner salt) solution) and 20 μl were added per well. After 4 hrs incubation at 37° C. (5% CO2 95% rH) optical density was measured at 490 nm on a microplate reader (Tecan Infinite M1000).
The % inhibition is expressed as percentage of the maximal inhibition value obtained in the absence of TNFα/zVAD.fmc.

As to `NC(=O)c1ccc2c(cnn2C[C@H]2CC[C@H](C(=O)N3OCC[C@H]3c3cc(F)cc(F)c3)CC2)c1` [compound 73, trans-1-((4-((S)-3-(3,5-difluorophenyl)isoxazolidine-2-carbonyl)cyclohexyl)methyl)-1H-indazole-5-carboxamide], the values for the IC50 (in assay [1]; with U937 cells) were 0.024 µM and 0.009 µM, respectively.
The matching figures for `Cc1nn(C)cc1-c1cncc(C[C@H]2CC[C@H](C(=O)N3OCC[C@H]3c3cnccn3)CC2)c1` [compound 308, trans-[4-[[5-(1,3-dimethylpyrazol-4-yl)-3-pyridyl]methyl]cyclohexyl]-[(3S)-3-pyrazin-2-ylisoxazolidin-2-yl]methanone]: 0.021 µM and 0.047 µM.
For `N#Cc1cncc([C@@H]2CCON2C(=O)[C@H]2CC[C@H](Cn3ncc4cc(F)ccc43)CC2)c1` [compound 126, trans-5-((S)-2-(4-((5-fluoro-1H-indazol-1-yl)methyl)cyclohexane-1-carbonyl)isoxazolidin-3-yl)nicotinonitrile], in that order: 0.037 µM and 0.029 µM.
The matching figures for `Cc1cc([C@@H]2CCON2C(=O)[C@H]2CC[C@H](Cn3ccc4c(F)cc(C#N)cc43)CC2)co1` [compound 47, trans-4-fluoro-1-((4-((S)-3-(5-methylfuran-3-yl)isoxazolidine-2-carbonyl)cyclohexyl)methyl)-1H-indole-6-carbonitrile]: 0.018 µM and 0.003 µM.
For `O=C([C@H]1CC[C@H](Cn2ccc3ncc(F)cc32)CC1)N1OCC[C@H]1c1cc(F)cc(F)c1` [compound 94, trans-((S)-3-(3,5-difluorophenyl)isoxazolidin-2-yl)(4-((6-fluoro-1H-pyrrolo[3,2-b]pyridin-1-yl)methyl)cyclohexyl)methanone], the figures for the IC50 (in assay [1]; with U937 cells) were 0.019 µM and 0.001 µM, respectively.
The matching figures for `N#Cc1cc(F)cc([C@@H]2CCON2C(=O)[C@H]2CC[C@H](Cc3ccc(C4(O)COC4)cc3)CC2)c1` [compound 169, trans-3-fluoro-5-[(3S)-2-[4-[[4-(3-hydroxyoxetan-3-yl)phenyl]methyl]cyclohexanecarbonyl]isoxazolidin-3-yl]benzonitrile]: 0.019 µM and 0.044 µM.
For `Cc1cc(C[C@H]2CC[C@H](C(=O)N3OCC[C@H]3c3cncc(F)c3)CC2)cn2ncnc12` [compound 336, trans-[(3S)-3-(5-fluoropyridin-3-yl)-1,2-oxazolidin-2-yl]-[4-[(8-methyl-[1,2,4]triazolo[1,5-a]pyridin-6-yl)methyl]cyclohexyl]methanone], in that order: 0.017 µM and 0.01 µM.
The matching figures for `N#Cc1cc(F)cc([C@@H]2CCON2C(=O)[C@H]2CC[C@H](Cc3cc(F)c4ncnn4c3)CC2)c1` [compound 206, trans-3-fluoro-5-[(3S)-2-[4-[(8-fluoro-[1,2,4]triazolo[1,5-a]pyridin-6-yl)methyl]cyclohexanecarbonyl]isoxazolidin-3-yl]benzonitrile]: 0.016 µM and 0.009 µM.
With `Cc1nc2c(C)cc(C[C@H]3CC[C@@](C)(C(=O)N4OCC[C@H]4c4cnc(C)c(F)c4)CC3)cn2n1` [compound 402], the IC50 in assay [1] amounted to 2 µM; in the assay with U937 cells it was 1.13 µM.
The matching figures for `O=C([C@H]1CC[C@H](Cn2cc3cc(F)ccc3n2)CC1)N1OCC[C@H]1c1cc(F)cc(F)c1` [compound 57, trans-((S)-3-(3,5-difluorophenyl)isoxazolidin-2-yl)(4-((5-fluoro-2H-indazol-2-yl)methyl)cyclohexyl)methanone]: 0.027 µM and 0.041 µM.
As for `N#Cc1cncc([C@@H]2CCON2C(=O)[C@H]2CC[C@H](Cc3ccc(C4(O)COC4)cc3)CC2)c1` [compound 183, trans-5-[(3S)-2-[4-[[4-(3-hydroxyoxetan-3-yl)phenyl]methyl]cyclohexanecarbonyl]isoxazolidin-3-yl]pyridine-3-carbonitrile], the IC50 in assay [1] came to 0.045 µM; in the assay on U937 cells, 0.023 µM.
As for `N#Cc1cc(F)cc([C@@H]2CCON2C(=O)[C@H]2CC[C@H](Cn3ncc4ccc(C#N)cc43)CC2)c1` [compound 28, trans-1-((4-((S)-3-(3-cyano-5-fluorophenyl)isoxazolidine-2-carbonyl)cyclohexyl)methyl)-1H-indazole-6-carbonitrile], the IC50 is 0.019 µM in assay [1] and 0.003 µM in the assay with U937 cells.
For `Cn1cc(C[C@H]2CC[C@H](C(=O)N3OCC[C@H]3c3cncc(C#N)c3)CC2)cn1` [compound 235, trans-5-[(3S)-2-[4-[(1-methylpyrazol-4-yl)methyl]cyclohexanecarbonyl]isoxazolidin-3-yl]pyridine-3-carbonitrile], in that order: 0.035 µM and 0.152 µM.
As for `Cc1nc2c(C)cc(C[C@H]3CC[C@H](C(=O)N4OCC[C@H]4c4cc(F)cc(C#N)c4)CC3)cn2n1` [compound 288, trans-3-[(3S)-2-[4-[(2,8-dimethyl-[1,2,4]triazolo[1,5-a]pyridin-6-yl)methyl]cyclohexanecarbonyl]isoxazolidin-3-yl]-5-fluoro-benzonitrile], the IC50 was found to be 0.017 µM in assay [1] and 0.004 µM with U937 cells.
Turning to `N#Cc1cc(F)cc([C@@H]2CCON2C(=O)[C@H]2CC[C@H](Cn3cnc4ccccc43)CC2)c1` [compound 7, trans-3-((S)-2-(4-((1H-benzo[d]imidazol-1-yl)methyl)cyclohexane-1-carbonyl)isoxazolidin-3-yl)-5-fluorobenzonitrile], the IC50 in assay [1] came to 0.015 µM; in the assay with U937 cells, 0.009 µM.
For `N#Cc1cnc2cnn(C[C@H]3CC[C@H](C(=O)N4OCC[C@H]4c4cc(F)cc(F)c4)CC3)c2c1` [compound 26, trans-1-((4-((S)-3-(3,5-difluorophenyl)isoxazolidine-2-carbonyl)cyclohexyl)methyl)-1H-pyrazolo[4,3-b]pyridine-6-carbonitrile], in that order: 0.02 µM and 0.002 µM.
As for `Cc1ccc([C@@H]2CCON2C(=O)[C@H]2CC[C@H](Cc3ccc4c(c3)C(=O)NC4)CC2)cn1` [compound 157, trans-6-[[4-[(3S)-3-(6-methyl-3-pyridyl)isoxazolidine-2-carbonyl]cyclohexyl]methyl]isoindolin-1-one], the IC50 in assay [1] came to 0.033 µM; in the assay with U937 cells, 0.396 µM.
For `N#Cc1cc(F)cc([C@@H]2CCON2C(=O)[C@H]2CC[C@H](Cn3cc4cc(C#N)ccc4n3)CC2)c1` [compound 59, trans-2-((4-((S)-3-(3-cyano-5-fluorophenyl)isoxazolidine-2-carbonyl)cyclohexyl)methyl)-2H-indazole-5-carbonitrile], in that order: 0.03 µM and 0.166 µM.
The matching figures for `Cc1cc(C)n(C[C@H]2CC[C@H](C(=O)N3OCC[C@H]3c3cc(F)cc(C#N)c3)CC2)n1` [compound 119, trans-3-((S)-2-(4-((3,5-dimethyl-1H-pyrazol-1-yl)methyl)cyclohexane-1-carbonyl)isoxazolidin-3-yl)-5-fluorobenzonitrile]: 0.027 µM and 0.054 µM.
